Experimental data published in article PMC6118387, “In silico drug absorption tract: An agent-based biomimetic model for human oral drug absorption” (PLoS ONE, 2018).
Several values for one entry are separate records, joined by “and”; a condition that tells them apart may be missing. Equal entries are not always repeated. Where two headings read alike, the source gives them in different places.

Assays:
[1] = Clinical bioequivalence study: plasma concentrations (LC-MS-MS) and noncompartmental PK after oral tablet; type: in vivo, human; conditions: for Concentration, individual subjects / concentration at 0 h / concentration at 0.5 h / concentration at 1 h / concentration at 1.5 h / concentration at 2 h / concentration at 3 h / concentration at 4 h / concentration at 6 h / concentration at 8 h / concentration at 10 h / concentration at 12 h / concentration at 24 h / concentration at 48 h / concentration at 72 h / concentration at 96 h: clonazepam 2 mg oral; for concentration at 0 h / concentration at 0.5 h / concentration at 1 h / concentration at 1.5 h / concentration at 2 h / concentration at 3 h / concentration at 4 h / concentration at 6 h / concentration at 8 h / concentration at 10 h / concentration at 12 h / concentration at 24 h / concentration at 48 h / concentration at 72 h / concentration at 96 h: po
[2] = clonazepam, literature referent value, cited from earlier work
[3] = model drug parameter fixed to literature reported value, cited from earlier work
[4] = Referent clinical, clonazepam 2 mg tablet oral, N = 14, mean ±1 SD
[5] = human, plasma, 2 mg, plasma, MEAN column of the sheet with 15 subject columns, read-out: Concentration, MEAN of raw data sheet
[6] = human, plasma, 2 mg, plasma, mean ±1 SD N=14, read-out: Concentration, Referent
[7] = human, plasma, 2 mg, plasma, one value per subject (A1-A6, A8, B1-B8; B5 consumed alcohol), read-out: Concentration, individual subjects
[8] = human, plasma, Referent clinical, clonazepam 2 mg tablet oral, N = 14, mean ±1 SD

Structure (SMILES): O=C1CN=C(c2ccccc2Cl)c2cc([N+](=O)[O-])ccc2N1 [Clonazepam, clonazepam]
- CL/F [1, 4]: 3.88 ± 0.68 L/h
- V/F [1, 4]: 186.84 ± 25.25 L
- Concentration, individual subjects ([1]; plasma, 4 h, one value per subject (A1-A6, A8, B1-B8; B5 consumed alcohol)): 12.61 ng/mL and 14.34 ng/mL and 8.84 ng/mL and 12.65 ng/mL and 11.84 ng/mL and 14.63 ng/mL and 14.50 ng/mL and 12.96 ng/mL and 13.82 ng/mL and 11.06 ng/mL and 13.21 ng/mL and 17.02 ng/mL and 10.16 ng/mL and 10.55 ng/mL
- Concentration, individual subjects ([1]; plasma, 6 h, one value per subject (A1-A6, A8, B1-B8; B5 consumed alcohol)): 10.50 ng/mL and 9.64 ng/mL and 15.51 ng/mL and 7.70 ng/mL and 10.12 ng/mL and 10.42 ng/mL and 11.00 ng/mL and 12.04 ng/mL and 12.42 ng/mL and 11.68 ng/mL and 12.48 ng/mL and 8.95 ng/mL and 12.72 ng/mL and 9.18 ng/mL and 8.60 ng/mL
- Concentration, individual subjects ([1]; plasma, 8 h, one value per subject (A1-A6, A8, B1-B8; B5 consumed alcohol)): 8.58 ng/mL and 9.87 ng/mL and 7.12 ng/mL and 7.80 ng/mL and 8.38 ng/mL and 11.29 ng/mL and 11.40 ng/mL and 10.91 ng/mL and 10.98 ng/mL and 11.71 ng/mL and 8.16 ng/mL and 11.31 ng/mL and 8.88 ng/mL and 8.34 ng/mL
- Concentration, individual subjects ([1]; plasma, 10 h, one value per subject (A1-A6, A8, B1-B8; B5 consumed alcohol)): 8.87 ng/mL and 11.42 ng/mL and 6.58 ng/mL and 7.89 ng/mL and 9.42 ng/mL and 8.97 ng/mL and 9.96 ng/mL and 11.87 ng/mL and 8.66 ng/mL and 9.83 ng/mL and 8.47 ng/mL and 9.69 ng/mL and 7.40 ng/mL and 7.44 ng/mL
- Concentration, individual subjects ([1]; plasma, 12 h, one value per subject (A1-A6, A8, B1-B8; B5 consumed alcohol)): 8.09 ng/mL and 8.83 ng/mL and 6.28 ng/mL and 6.29 ng/mL and 8.86 ng/mL and 7.97 ng/mL and 9.45 ng/mL and 11.04 ng/mL and 8.02 ng/mL and 9.77 ng/mL and 7.69 ng/mL and 8.43 ng/mL and 7.52 ng/mL and 6.76 ng/mL
- Concentration, individual subjects ([1]; plasma, 24 h, one value per subject (A1-A6, A8, B1-B8; B5 consumed alcohol)): 7.01 ng/mL and 7.87 ng/mL and 5.83 ng/mL and 6.96 ng/mL and 7.45 ng/mL and 7.77 ng/mL and 8.74 ng/mL and 8.99 ng/mL and 7.52 ng/mL and 8.66 ng/mL and 7.57 ng/mL and 8.32 ng/mL and 5.43 ng/mL and 6.77 ng/mL
- Concentration, individual subjects ([1]; plasma, 48 h, one value per subject (A1-A6, A8, B1-B8; B5 consumed alcohol)): 4.72 ng/mL and 5.20 ng/mL and 6.30 ng/mL and 3.61 ng/mL and 5.16 ng/mL and 4.16 ng/mL and 6.22 ng/mL and 4.74 ng/mL and 6.11 ng/mL and 5.31 ng/mL and 5.10 ng/mL and 5.12 ng/mL and 5.25 ng/mL and 4.06 ng/mL and 3.12 ng/mL
- Cmax ([1]; human, plasma, oral, 2 mg, clonazepam, peak of the mean clinical concentration-time profile over 96 hours): 13.5 ng/mL
- concentration at 0 h [1, 5]: 0 ng/mL
- concentration at 0 h [1, 6]: 0 ng/mL
- concentration at 0 h [1, 7]: 0 ng/mL
- concentration at 0.5 h [1, 5]: 6.65 ng/mL
- concentration at 0.5 h [1, 6]: 7.13 ± 7.06 ng/mL
- concentration at 1 h [1, 5]: 13 ng/mL
- concentration at 1 h [1, 6]: 13.4 ± 5.29 ng/mL
- concentration at 1.5 h [1, 5]: 13.5 ng/mL
- concentration at 1.5 h [1, 6]: 13.9 ± 3.71 ng/mL
- concentration at 2 h [1, 5]: 13.1 ng/mL
- concentration at 2 h [1, 6]: 13.3 ± 2.82 ng/mL
- concentration at 2 h [1, 7]: 13.7 ng/mL
- concentration at 3 h [1, 5]: 12.7 ng/mL
- concentration at 3 h [1, 6]: 12.9 ± 2.36 ng/mL
- concentration at 3 h [1, 7]: 12.5 ng/mL
- concentration at 4 h ([1]; human, plasma, 2 mg, plasma, 4 h, MEAN column of the sheet with 15 subject columns, read-out: Concentration, MEAN of raw data sheet): 12.7 ng/mL
- concentration at 4 h ([1]; human, plasma, 2 mg, plasma, 4 h, mean ±1 SD N=14, read-out: Concentration, Referent): 13 ± 1.82 ng/mL
- concentration at 4 h ([1]; human, plasma, 2 mg, plasma, 4 h, one value per subject (A1-A6, A8, B1-B8; B5 consumed alcohol), read-out: Concentration, individual subjects): 12.7 ng/mL
- concentration at 6 h ([1]; human, plasma, 2 mg, plasma, 6 h, MEAN column of the sheet with 15 subject columns, read-out: Concentration, MEAN of raw data sheet): 10.9 ng/mL
- concentration at 6 h ([1]; human, plasma, 2 mg, plasma, 6 h, mean ±1 SD N=14, read-out: Concentration, Referent): 11.1 ± 1.87 ng/mL
- concentration at 8 h ([1]; human, plasma, 2 mg, plasma, 8 h, MEAN column of the sheet with 15 subject columns, read-out: Concentration, MEAN of raw data sheet): 9.62 ng/mL
- concentration at 8 h ([1]; human, plasma, 2 mg, plasma, 8 h, mean ±1 SD N=14, read-out: Concentration, Referent): 9.8 ± 1.43 ng/mL
- concentration at 8 h ([1]; human, plasma, 2 mg, plasma, 8 h, one value per subject (A1-A6, A8, B1-B8; B5 consumed alcohol), read-out: Concentration, individual subjects): 9.63 ng/mL
- concentration at 10 h ([1]; human, plasma, 2 mg, plasma, 10 h, MEAN column of the sheet with 15 subject columns, read-out: Concentration, MEAN of raw data sheet): 9.05 ng/mL
- concentration at 10 h ([1]; human, plasma, 2 mg, plasma, 10 h, mean ±1 SD N=14, read-out: Concentration, Referent): 9.23 ± 1.31 ng/mL
- concentration at 10 h ([1]; human, plasma, 2 mg, plasma, 10 h, one value per subject (A1-A6, A8, B1-B8; B5 consumed alcohol), read-out: Concentration, individual subjects): 9.31 ng/mL
- concentration at 12 h ([1]; human, plasma, 2 mg, plasma, 12 h, MEAN column of the sheet with 15 subject columns, read-out: Concentration, MEAN of raw data sheet): 8.25 ng/mL
- concentration at 12 h ([1]; human, plasma, 2 mg, plasma, 12 h, mean ±1 SD N=14, read-out: Concentration, Referent): 8.39 ± 1.22 ng/mL
- concentration at 12 h ([1]; human, plasma, 2 mg, plasma, 12 h, one value per subject (A1-A6, A8, B1-B8; B5 consumed alcohol), read-out: Concentration, individual subjects): 8.78 ng/mL
- concentration at 24 h ([1]; human, plasma, 2 mg, plasma, 24 h, MEAN column of the sheet with 15 subject columns, read-out: Concentration, MEAN of raw data sheet): 7.53 ng/mL
- concentration at 24 h ([1]; human, plasma, 2 mg, plasma, 24 h, mean ±1 SD N=14, read-out: Concentration, Referent): 7.65 ± 0.93 ng/mL
- concentration at 24 h ([1]; human, plasma, 2 mg, plasma, 24 h, one value per subject (A1-A6, A8, B1-B8; B5 consumed alcohol), read-out: Concentration, individual subjects): 8.02 ng/mL
- concentration at 48 h ([1]; human, plasma, 2 mg, plasma, 48 h, MEAN column of the sheet with 15 subject columns, read-out: Concentration, MEAN of raw data sheet): 4.95 ng/mL
- concentration at 48 h ([1]; human, plasma, 2 mg, plasma, 48 h, mean ±1 SD N=14, read-out: Concentration, Referent): 5.04 ± 0.87 ng/mL
- concentration at 72 h [1, 5]: 3.13 ng/mL
- concentration at 72 h [1, 6]: 3.22 ± 0.71 ng/mL
- concentration at 96 h [1, 5]: 1.89 ng/mL
- concentration at 96 h [1, 6]: 1.95 ± 0.58 ng/mL
- AUC [1, 8]: 529 ± 80.8 ng·h/mL
- Cmax [1, 8]: 16.2 ± 4.28 ng/mL
- half-life [1, 8]: 49 ± 7.79 h
- k el [1, 8]: 5.83e-06 s⁻¹
- Tmax ([1]; human, plasma, Referent clinical, clonazepam 2 mg tablet oral, N = 14, median, read-out: Tmax): 1.5 h
- F (absolute oral bioavailability) [2]: ≥ 90%
- Fa × Fg [2]: 93–95%
- Fh [2]: 95–97%
- Fa × Fg ([2]; listed as clonazepam): 93–95%
- Fh ([2]; listed as clonazepam): 95–97%
- Pka, In silico acid/base equilibrium constant ([3]; first printed value): 1.86
- Pka, In silico acid/base equilibrium constant ([3]; second printed value): 11.89
